Measurements as given in ChEMBL document CHEMBL5154769, “Discovery of the First-in-Class Agonist-Based SOS1 PROTACs Effective in Human Cancer Cells Harboring Various KRAS Mutations” (J Med Chem, 2022).
Active and inactive are the calls of the source. The calls are words filed in the database; no cut-off is given here.

Columns and labels:
[1] = target: T1, von Hippel-Lindau disease tumor suppressor/Son of sevenless homolog 2 (Homo sapiens) (UniProt P40337+Q07890); assay: Protac activity at VHL/SOS2 in human ASPC1 cells assessed as SOS2 mRNA level at 1 uM incubated for 24 to 72 hr by qRT PCR analysis; assay type: cell-based; conditions: time 24-72 hrs
T1 sequence (P40337 whole entry, looked up): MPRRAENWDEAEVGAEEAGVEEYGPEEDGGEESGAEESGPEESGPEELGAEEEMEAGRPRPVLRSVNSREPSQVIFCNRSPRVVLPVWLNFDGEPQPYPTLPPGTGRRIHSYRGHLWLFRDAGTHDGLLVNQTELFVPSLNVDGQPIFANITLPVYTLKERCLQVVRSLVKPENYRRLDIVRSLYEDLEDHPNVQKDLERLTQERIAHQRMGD
T1 sequence (Q07890 whole entry, looked up): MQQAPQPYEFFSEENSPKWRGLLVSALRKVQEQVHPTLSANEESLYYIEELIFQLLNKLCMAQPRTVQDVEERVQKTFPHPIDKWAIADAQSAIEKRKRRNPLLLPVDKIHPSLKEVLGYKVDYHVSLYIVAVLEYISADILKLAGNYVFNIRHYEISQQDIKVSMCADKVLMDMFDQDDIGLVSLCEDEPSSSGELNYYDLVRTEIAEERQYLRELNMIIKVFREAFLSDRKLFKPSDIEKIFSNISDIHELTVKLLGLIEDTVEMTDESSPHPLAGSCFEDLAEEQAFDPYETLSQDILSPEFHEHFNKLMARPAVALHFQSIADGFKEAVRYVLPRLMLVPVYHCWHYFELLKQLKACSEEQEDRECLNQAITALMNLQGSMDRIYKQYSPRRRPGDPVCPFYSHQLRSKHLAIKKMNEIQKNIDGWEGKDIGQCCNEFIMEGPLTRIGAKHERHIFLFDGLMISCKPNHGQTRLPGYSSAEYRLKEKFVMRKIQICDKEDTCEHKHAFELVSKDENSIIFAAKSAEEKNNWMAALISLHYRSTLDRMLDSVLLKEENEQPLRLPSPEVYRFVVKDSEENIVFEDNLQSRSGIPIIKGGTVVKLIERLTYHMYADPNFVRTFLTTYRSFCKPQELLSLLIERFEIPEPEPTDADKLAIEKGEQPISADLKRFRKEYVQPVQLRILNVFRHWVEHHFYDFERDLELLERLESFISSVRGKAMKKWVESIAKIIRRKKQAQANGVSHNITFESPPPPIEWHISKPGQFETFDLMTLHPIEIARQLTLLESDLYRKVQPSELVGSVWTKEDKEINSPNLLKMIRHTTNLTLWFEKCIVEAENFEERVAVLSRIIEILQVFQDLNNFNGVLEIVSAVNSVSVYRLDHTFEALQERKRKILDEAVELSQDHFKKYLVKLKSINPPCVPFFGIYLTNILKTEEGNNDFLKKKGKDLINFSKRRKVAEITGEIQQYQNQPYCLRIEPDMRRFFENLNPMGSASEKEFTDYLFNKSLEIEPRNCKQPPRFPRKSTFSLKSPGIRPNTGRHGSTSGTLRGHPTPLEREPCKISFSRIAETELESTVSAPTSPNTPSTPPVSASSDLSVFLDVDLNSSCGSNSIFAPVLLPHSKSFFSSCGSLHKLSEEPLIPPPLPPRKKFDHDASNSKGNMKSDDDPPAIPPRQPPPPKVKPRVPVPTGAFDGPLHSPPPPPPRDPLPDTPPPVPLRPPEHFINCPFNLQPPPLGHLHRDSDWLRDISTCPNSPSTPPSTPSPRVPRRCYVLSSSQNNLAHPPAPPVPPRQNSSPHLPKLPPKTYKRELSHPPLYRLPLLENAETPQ

[2] = Observed AUC (infinity) in BALB/c mouse at 10 mg/kg, ip measured after 24 hrs by LC-MS/MS analysis; assay type: ADME, organism-based; parameters: dose 10 mg/kg, time 24 hrs, route ip; conditions: in vivo
[3] = Toxicity in BALB/c nude mouse xenografted with human NCI-H358 cells assessed as effect on body weight at 20 to 50 mg/kg, IT twice weekly for 5 weeks; assay type: organism-based; conditions: in vivo, other, 840 h, dose 20-50 mg/kg
[4] = target: T2, von Hippel-Lindau disease tumor suppressor/Son of sevenless homolog 1 (Homo sapiens, UniProt Q07889+P40337); assay: Protac activity at VHL/SOS1 in human ASPC1 cells assessed as SOS1 protein degradation at 1 uM incubated measured after 16 hr by western blot analysis; assay type: cell-based
T2 sequence (P40337 whole entry, looked up): as the sequence (P40337 whole entry, looked up) above
T2 sequence (Q07889 whole entry, looked up): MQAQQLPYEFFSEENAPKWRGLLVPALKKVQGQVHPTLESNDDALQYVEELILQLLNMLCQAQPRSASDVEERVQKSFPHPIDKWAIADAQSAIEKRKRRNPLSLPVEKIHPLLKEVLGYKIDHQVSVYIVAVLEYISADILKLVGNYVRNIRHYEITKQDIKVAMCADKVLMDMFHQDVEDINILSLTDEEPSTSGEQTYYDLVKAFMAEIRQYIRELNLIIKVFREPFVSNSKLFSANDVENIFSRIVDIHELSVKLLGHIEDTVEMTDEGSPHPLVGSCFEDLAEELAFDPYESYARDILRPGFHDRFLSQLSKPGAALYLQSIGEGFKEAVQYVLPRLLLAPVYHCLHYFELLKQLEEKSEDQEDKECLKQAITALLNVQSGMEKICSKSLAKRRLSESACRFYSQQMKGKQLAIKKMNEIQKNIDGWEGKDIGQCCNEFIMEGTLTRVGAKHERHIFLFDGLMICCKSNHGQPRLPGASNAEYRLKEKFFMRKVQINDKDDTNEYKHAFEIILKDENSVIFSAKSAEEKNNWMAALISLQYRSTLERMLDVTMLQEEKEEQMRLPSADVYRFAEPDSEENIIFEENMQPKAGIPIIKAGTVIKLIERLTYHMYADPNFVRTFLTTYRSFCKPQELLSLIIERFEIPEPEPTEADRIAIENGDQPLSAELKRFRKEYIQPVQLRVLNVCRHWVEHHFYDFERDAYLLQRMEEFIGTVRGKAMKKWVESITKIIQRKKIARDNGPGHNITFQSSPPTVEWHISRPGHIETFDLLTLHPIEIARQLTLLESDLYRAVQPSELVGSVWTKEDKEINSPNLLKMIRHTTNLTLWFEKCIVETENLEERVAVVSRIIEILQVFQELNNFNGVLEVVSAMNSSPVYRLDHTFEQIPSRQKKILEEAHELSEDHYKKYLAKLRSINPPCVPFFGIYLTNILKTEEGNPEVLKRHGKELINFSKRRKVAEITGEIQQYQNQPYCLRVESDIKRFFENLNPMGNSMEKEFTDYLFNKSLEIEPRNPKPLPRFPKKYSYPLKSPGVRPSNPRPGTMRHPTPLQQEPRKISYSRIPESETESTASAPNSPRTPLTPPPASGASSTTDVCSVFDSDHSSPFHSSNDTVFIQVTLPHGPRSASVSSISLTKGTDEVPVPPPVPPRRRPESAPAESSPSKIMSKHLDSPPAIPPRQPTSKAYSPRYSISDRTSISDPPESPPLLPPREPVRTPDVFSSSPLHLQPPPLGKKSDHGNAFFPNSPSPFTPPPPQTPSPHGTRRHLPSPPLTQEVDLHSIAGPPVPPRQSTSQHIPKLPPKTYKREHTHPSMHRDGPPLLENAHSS

[5] = Acute toxicity in BALB/c mouse assessed as change in body weight at 10 mg/kg, ip once daily for 7 days; assay type: organism-based; conditions: in vivo, 168 h, time 7 day
[6] = target: T1, von Hippel-Lindau disease tumor suppressor/Son of sevenless homolog 2 (Homo sapiens); assay: Protac activity at VHL/SOS2 in human NCI-H358 cells assessed as SOS2 protein degradation at 9.8 to 2500 nM incubated for 24 hr by Western blot analysis; assay type: cell-based; conditions: dose 9.8-2500 nM, DDE = dose-dependent effect
[7] = test system: MIA PaCa-2; assay: Antiproliferative activity against human MIA PaCa-2 cells harboring KRAS G12C mutant assessed as cell growth inhibition incubated for 7 days by CellTiter-Glo 3D cell viability assay; assay type: functional, cell-based; conditions: MIA PaCa-2, 168 h
[8] = target: T2, von Hippel-Lindau disease tumor suppressor/Son of sevenless homolog 1; assay: Protac activity at VHL/SOS1 in human NCI-H358 cells assessed as SOS1 protein degradation at 1 uM incubated for 24 hr by Western blot analysis relative to control; assay type: cell-based
[9] = test system: A549; assay: Antiproliferative activity against human A549 cells harboring KRAS G12S mutant assessed as cell growth inhibition incubated for 7 days by CellTiter-Glo 3D cell viability assay; assay type: functional, cell-based; conditions: A549, 168 h
[10] = test system: HEK-293T; assay: Cytotoxicity against human HEK-293T cells assessed as cell growth inhibition incubated for 7 days by CellTiter-Glo 3D cell viability assay; assay type: toxicity, cell-based; conditions: 168 h, time 7 day
[11] = Acute toxicity in BALB/c mouse assessed as change in body weight at 20 mg/kg, ip once daily for 7 days; assay type: organism-based; conditions: in vivo, 168 h, time 7 day
[12] = target: von Hippel-Lindau disease tumor suppressor/Son of sevenless homolog 1 (Homo sapiens, UniProt Q07889+P40337, G12D); assay: Protac activity at VHL/SOS1 in human SK-LU-1 cells harboring KRAS G12D mutant assessed as SOS1 protein degradation incubated for 24 hr by Western blot analysis; assay type: cell-based
Chain of von Hippel-Lindau disease tumor suppressor/Son of sevenless homolog 1 (Homo sapiens, UniProt Q07889+P40337, G12D) (P40337 whole entry, looked up, stated change not applied): as the sequence (P40337 whole entry, looked up) above
Chain of von Hippel-Lindau disease tumor suppressor/Son of sevenless homolog 1 (Homo sapiens, UniProt Q07889+P40337, G12D) (Q07889 whole entry, looked up, stated change not applied): as the sequence (Q07889 whole entry, looked up) above

[13] = test system: NCI-H358; assay: Effect of compound on human NCI-H358 cells assessed as increase in phophorylated ERK level at 1 uM incubated for 4 hr by Western blot analysis; assay type: functional, cell-based
[14] = target: T2, von Hippel-Lindau disease tumor suppressor/Son of sevenless homolog 1; assay: Protac activity at VHL/SOS1 in human NCI-H358 cells assessed as SOS1 protein degradation at 0.1 uM incubated for 24 hr by Western blot analysis relative to control; assay type: cell-based
[15] = test system: NCI-H358; assay: Antiproliferative activity against human NCI-H358 cells harboring KRAS G12C mutant assessed as growth inhibition incubated for 7 days by CellTiter-Glo 3D cell viability assay; assay type: functional, cell-based; conditions: NCI-H358, 168 h

Compound: Cc1cc(Cn2c(N3CC4(CNC4)C3)nc3c(N4CCN(CCCCCCCCC(=O)N[C@H](C(=O)N5C[C@H](O)C[C@H]5C(=O)N[C@@H](C)c5ccc(-c6scnc6C)cc5)C(C)(C)C)CC4)cc(Cl)cc32)cc(C)c1F
- Activity [1]: Active
- AUC(0-inf) [2]: 4420 ng·h/mL
- Activity [3]: Non-Toxic
- Activity [4]: Active
- Activity [5]: Non-Toxic
- Activity [6]: Dde
- IC50 [7]: 218 nM
- Activity [8]: 92.5%
- IC50 [9]: 232 nM
- Activity [10]: Non-Toxic
- Activity [11]: Non-Toxic
- DC50 [12]: 104 nM
- Activity [13]: Active
- Activity [14]: 56.2%
- IC50 [15]: 525 nM
